# In patent publication US9351485B2, “Use of sophorolipids and derivatives thereof in combination with pesticides as adjuvant/additive for plant protection and the industrial non-crop field” (EVONIK DEGUSSA GMBH, priority 2009, dated 2016):
# Test system: mildew fungus Blumeria graminis f. sp. hordei (race A6)
# Test: Protective fungicide glasshouse trial on barley (mildew)
# Assay type: in vivo
# Conditions: Table 6; Sulfur 250 g/ha, no adjuvant; 10 days after application
# Source text: The plants (barley) were cultivated under glass in exactly the same way as in the curative trial. For the protective trials, however, the plants were sprayed at about three weeks old with spray solutions containing the active fungicidal ingredient sulfur (Microthiol WG 80% sulfur from Stähler), either alone or in combination with adjuvants/additives. Furthermore, in order to test for synergy, the adjuvant was applied in the spray solution alone, in other words without sulfur. The sulfur dose was 1000 ppm/l, while the adjuvants were used in different doses (for doses see results tables). The amount of spray solution was 250 l/ha, and so the adjuvant concentration in the spray solution was not more than 0.1%; the sulfur dose was 250 g/ha. […]
# The activity of the adjuvant alone, of the pesticide alone (i.e., of the fungicides or herbicides), and of the pesticide/adjuvant combination was calculated, in a manner known to the skilled person, in comparison to an untreated control sample, which was nevertheless inoculated with the mildew fungus, and expressed in % control of the disease.
smiles,measurement,value
"S1SSSSSSS1 [Sulfur, sulfur]",Efficacy (%),46%
